Test results: patent US20060111305A1, “Metabolites of certain [1,4]diazepino[6,7,1-ij]quinoline derivatives and methods of preparation and use thereof” (Wyeth, priority 2004, published 2006)

Columns and labels:
[1] = Dog fecal excretion and metabolite profiles after oral capsule of [14C]DCDQ; format: in vivo, beagle dogs
Experimental: Blood samples were collected from the jugular vein at 2, 4, 8, 24 and 48 hour after dose administration into tubes containing potassium EDTA as the anticoagulant and then placed on ice. Aliquots of 50 μL were removed for combustion and determination of radioactivity content. Plasma was immediately obtained from the remaining blood by centrifugation at 4° C. Urine samples were collected into tubes on dry ice at intervals of 0-8, 8-24 and 24-48 hour post-dose. Fecal samples were collected at intervals of 0-8, 8-24 and 24-48 hour post-dose at room temperature, and were homogenized. The biological specimens were stored at approximately −70° C. until analysis.
Feces were weighed and homogenized in water at a volume-to-weight ratio of about 5:1. Aliquots of blood (200 μL) and fecal homogenates (0.25-0.53 gram) were placed on Combusto-cones with Combusto-pads and combusted. A model 307 Tri-Carb sample oxidizer, equipped with an Oximate-80 robotic automatic sampler (Perkin Elmer), was used for combustion of blood and fecal samples. The liberated ^14CO2 was trapped with Carbo-Sorb E carbon dioxide absorber, mixed with PermaFluor® E+ liquid scintillation cocktail, and counted on a Tri-Carb Model 3100 TR/LL liquid scintillation counter (Perkin Elmer). The efficiency of combustion was 98.9%.
Fecal homogenates were analyzed for metabolite profiles. Aliquots of 1 gram of fecal homogenate were mixed with 2 mL methanol, placed on ice for about 10 minutes and centrifuged. The supernatant was transferred to a clean tube. The residue was extracted three times with 2 mL of a water:methanol (3:7) mixture. The supernatants from each sample were combined, evaporated to about 1 mL, and centrifuged. Extraction efficiency was determined by analyzing aliquots of 10 μL of the supernatant for radioactivity. An aliquot (50-200 μL) of the supernatant was analyzed by HPLC with radioactivity flow detection for metabolite profiles. Samples were also analyzed by LC/MS to characterize the radioactive peaks.
A Waters model 2690 HPLC system (Waters Corp., Milford, Mass.) with a built-in autosampler was used for analysis. Separations were accomplished on a Phenomenex Luna C18(2) column (150×2.0 mm, 5 μm) (Phenomenex, Torrance, Calif.). The sample chamber of the autosampler was maintained at 4° C., while the column was at ambient temperature of about 20° C. A variable wavelength UV detector set to monitor 250 nm and a Flo-One β Model A525 radioactivity detector were used for data acquisition. The HPLC mobile phase consisted of 10 mM ammonium acetate, pH 4.5 (A) and acetonitrile (B), and was delivered at 0.2 mL/min. Chromatographic condition A was used for dose analysis, while condition B was used for analysis of urine and plasma, brain and fecal extracts.

[2] = system: cryopreserved human hepatocytes; experiment: Incubation of [14C]DCDQ with cryopreserved human hepatocytes; format: in vitro ADME; settings: 4 hours
Experimental: Vials containing cryopreserved human hepatocytes were thawed in a 37° C. water bath with gentle shaking until the ice was almost melted. The vials were removed from the water bath and gentle shaking continued at room temperature for 30-60 seconds until completely thawed. The hepatocyte suspensions from each vial were immediately transferred to pre-cooled 50 mL beakers on ice. To each beaker, 12 mL of ice-cold hepatocyte suspension media was added dropwise over one minute, with occasional, gentle shaking by hand to prevent the cells from settling. The cell suspensions were transferred to a 15 mL tube and centrifuged at 100 g force for 3 min at 4° C. (Model T21 super centrifuge, Sorvall). The supernatant was discarded and the pellets were re-suspended in 4 mL of ice-cold hepatocyte culture media. The cell suspensions contained approximately 3.1×10^6 viable hepatocytes/mL. The average viability was 76.0% as determined using Trypan Blue exclusion and a hemacytometer.
The cell suspensions were distributed into 12-well plates at 1.0 mL per well. Incubations were performed using pooled hepatocytes from two donors. [^14C]DCDQ in water was added to the hepatocyte suspension at a final concentration of 10 or 50 μM. Incubations were carried out at 37° C. for 4 hours in an incubator supplied with 5% CO2. At the end of the incubation, the reaction was stopped by the addition of 200 μL cold methanol to each well. The content of each well was transferred to a 15 mL centrifuge tube and sonicated for 30 seconds. After vortex mixing with 6 mL methanol and then centrifugation, the supernatant was transferred to a clean tube and evaporated to about 0.5 mL in a TurboVap evaporator. The residue was analyzed by HPLC and LC/MS.
A Waters model 2690 HPLC system (Waters Corp., Milford, Mass.) with a built-in autosampler was used for analysis. […] A variable wavelength UV detector set to monitor 250 nm and Flo-One β Model A525 radioactivity flow detector (Perkin Elmer) with a 250 μL LQTR flow cell were used for data acquisition. […]

OC1[C@@H]2CCC[C@@H]2c2cccc3c2N1CCNC3 (stereo partly shown) [Metabolite M2, hydroxy DCDQ]
metabolite detected in feces [1]: detected

O=C(O)[C@H]1O[C@@H](OC(=O)N2CCN3C[C@@H]4CCC[C@@H]4c4cccc(c43)C2)[C@H](O)[C@@H](O)[C@@H]1O [Metabolite M6, carbamoyl glucuronide of DCDQ]
metabolite detected in feces [1]: not detected | relative abundance of metabolite in human hepatocytes ([2]; 50 μM DCDQ): most prominent metabolite

O=C1CC[C@@H]2c3cccc4c3N(CCNC4)C[C@H]12 [Metabolite M7, 17-keto DCDQ]
metabolite detected in human hepatocyte incubations ([2]; 10 or 50 μM DCDQ): detected
